Assay results: ChEMBL document CHEMBL1153680, “Structural influences of styryl-based inhibitors on epidermal growth factor receptor and p56lck tyrosine-specific protein kinases” (Bioorg Med Chem Lett, 1991)

Assays:
[1] = biological target: Epidermal growth factor receptor (Homo sapiens, UniProt P00533); experiment: Inhibition of Epidermal growth factor receptor
[2] = biological target: Tyrosine-protein kinase Lck (Homo sapiens, UniProt P06239); experiment: Inhibition of p56 lck tyrosine kinase
Sequence of Tyrosine-protein kinase Lck (P06239 whole entry): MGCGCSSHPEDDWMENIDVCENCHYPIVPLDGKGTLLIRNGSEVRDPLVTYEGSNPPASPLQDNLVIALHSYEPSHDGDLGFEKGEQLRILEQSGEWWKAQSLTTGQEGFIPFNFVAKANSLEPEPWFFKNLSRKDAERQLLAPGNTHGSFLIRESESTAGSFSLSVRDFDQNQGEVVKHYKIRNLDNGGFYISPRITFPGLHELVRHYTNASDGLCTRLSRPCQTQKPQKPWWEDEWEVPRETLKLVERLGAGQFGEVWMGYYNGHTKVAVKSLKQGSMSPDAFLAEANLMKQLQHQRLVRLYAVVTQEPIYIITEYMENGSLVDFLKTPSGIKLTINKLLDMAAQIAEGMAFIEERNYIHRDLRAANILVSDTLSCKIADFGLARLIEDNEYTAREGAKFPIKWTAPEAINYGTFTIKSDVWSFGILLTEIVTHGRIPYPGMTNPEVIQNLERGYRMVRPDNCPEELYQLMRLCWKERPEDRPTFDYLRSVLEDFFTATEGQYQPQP

Sequence of Epidermal growth factor receptor (P00533 whole entry): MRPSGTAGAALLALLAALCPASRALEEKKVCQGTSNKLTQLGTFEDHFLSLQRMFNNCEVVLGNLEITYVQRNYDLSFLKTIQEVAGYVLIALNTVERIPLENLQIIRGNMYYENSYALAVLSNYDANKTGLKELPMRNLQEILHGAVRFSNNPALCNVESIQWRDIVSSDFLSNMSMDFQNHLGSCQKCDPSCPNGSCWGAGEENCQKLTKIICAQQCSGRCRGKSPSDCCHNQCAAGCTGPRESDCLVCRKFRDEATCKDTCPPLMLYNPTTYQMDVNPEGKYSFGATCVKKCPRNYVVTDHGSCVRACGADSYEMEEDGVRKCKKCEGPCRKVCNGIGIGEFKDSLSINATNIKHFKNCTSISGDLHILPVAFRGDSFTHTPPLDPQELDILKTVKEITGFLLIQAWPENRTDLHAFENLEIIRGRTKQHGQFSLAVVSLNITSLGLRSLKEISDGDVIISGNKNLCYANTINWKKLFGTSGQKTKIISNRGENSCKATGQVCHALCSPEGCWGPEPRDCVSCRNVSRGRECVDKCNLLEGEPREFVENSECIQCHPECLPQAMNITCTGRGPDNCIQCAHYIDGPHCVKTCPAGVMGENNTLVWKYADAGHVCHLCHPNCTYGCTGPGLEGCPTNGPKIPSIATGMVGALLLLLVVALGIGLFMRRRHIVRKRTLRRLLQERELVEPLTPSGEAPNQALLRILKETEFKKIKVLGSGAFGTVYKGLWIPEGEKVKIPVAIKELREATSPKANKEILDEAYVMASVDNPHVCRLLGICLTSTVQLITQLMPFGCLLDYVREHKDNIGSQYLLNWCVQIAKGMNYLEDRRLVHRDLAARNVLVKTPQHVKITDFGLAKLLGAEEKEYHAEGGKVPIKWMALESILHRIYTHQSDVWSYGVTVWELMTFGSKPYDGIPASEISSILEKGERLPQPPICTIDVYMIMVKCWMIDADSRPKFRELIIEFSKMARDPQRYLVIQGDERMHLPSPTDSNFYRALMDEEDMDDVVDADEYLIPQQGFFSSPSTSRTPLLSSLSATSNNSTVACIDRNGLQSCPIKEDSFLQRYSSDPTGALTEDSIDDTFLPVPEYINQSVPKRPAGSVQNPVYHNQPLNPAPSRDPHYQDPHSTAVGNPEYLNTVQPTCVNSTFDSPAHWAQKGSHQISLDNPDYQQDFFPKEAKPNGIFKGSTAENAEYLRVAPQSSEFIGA

Structure (SMILES) | IC50 [1] [µM] | IC50 [2] [µM]
N#C/C(=C\c1cc(O)ccc1O)C(N)=O | 10 | 100
O=CN/C=C/c1cc(O)ccc1O [ERBSTATIN] | 3 | –
O=CN/C=C/c1ccc(O)c(O)c1 | 7 | –
N#C/C(=C\c1ccc(O)c(O)c1)C(N)=O | 4 | 7
